In publication PMC9697031, “Identification of Novel Diarylpyrimidines as Potent HIV-1 Non-Nucleoside Reverse Transcriptase Inhibitors by Exploring the Primer Grip Region” (Pharmaceuticals, 2022):
Read-outs that look alike come from different tables or passages of the source.

Tests used:
[1] = test system: HIV-2 strain (ROD); experiment: Anti-HIV-2 (ROD) activity in MT-4 cells, MTT method; format: cell-based
Experimental: (§1) Stock solutions (10 × final concentration) of test compounds were added in 25 μL volumes to two series of triplicate wells to allow simultaneous evaluation of their effects on mock- and HIV-infected cells at the beginning of each experiment.

[2] = test system: HIV-1 Y188L mutant strain; experiment: Anti-HIV-1 mutant strain Y188L in MT-4 cells, MTT method; format: cell-based; details: Human immunodeficiency virus 1, MT4, read-out: EC50 Y188L
Experimental: (§2) Evaluation of the anti-HIV activity and cytotoxicity of the target compounds was performed by utilizing the MTT method in MT-4 cells described previously [37]. Stock solutions (10 × final concentration) of test compounds were added in 25 μL volumes to two series of triplicate wells to allow simultaneous evaluation of their effects on mock- and HIV-infected cells at the beginning of each experiment. Serial five-fold dilutions of test compounds were prepared directly in flat-bottomed 96-well microtiter trays by adding 100 μL medium to the 25 μL stock solution and transferring 25 μL of this solution to another well that contained 100 μL medium using a Biomek 3000 robot (Beckman Instruments, Fullerton, CA). Each sample includes untreated control HIV- and mock-infected cell samples. WT HIV-1 strain (IIIB), HIV-1 drug-resistant strains including L100I, K103N, Y181C, Y188L, E138K, K103N/Y181C, F227L/V106A or HIV-2 strain (ROD) stock (50 μL) at 100–300 CCID50 (50% cell culture infectious dose) or culture medium was added to either the infected or mock-infected wells of the microtiter tray. Mock-infected cells were used to evaluate the effect of test compounds on uninfected cells to evaluate their cytotoxicity. Exponentially growing MT-4 cells were centrifuged for 5 min at 1000 rpm, and the supernatant was discarded. […] After infection five days, the viability of mock- and HIV-infected cells was examined spectrophotometrically by the MTT assay.

[3] = test system: HIV-1 K103N mutant strain; experiment: microbe, parasite or virus in culture; format: cell-based; details: for EC50: Human immunodeficiency virus 1, MT4, read-out: EC50 K103N; for Resistance Folds K103N: RF, EC50 (K103N)/EC50 (WT)
Experimental: as §1

[4] = test system: HIV-1 F227L + V106A mutant strain; experiment: Anti-HIV-1 double mutant F227L + V106A in MT-4 cells, MTT method; format: cell-based; details: Human immunodeficiency virus 1, MT4, read-out: EC50 F227L + V106A
Experimental: as §2

[5] = test system: HIV-1 L100I mutant strain; experiment: Anti-HIV-1 mutant strain L100I in MT-4 cells, MTT method; format: cell-based; details: Human immunodeficiency virus 1, MT4, read-out: EC50 L100I
Experimental: as §2

[6] = in vitro; details: human
Experimental: as §1

[7] = test system: HIV-1 E138K mutant strain; experiment: Anti-HIV-1 mutant strain E138K in MT-4 cells, MTT method; format: cell-based; details: Human immunodeficiency virus 1, MT4, read-out: EC50 E138K
Experimental: as §2

[8] = test system: HIV-1 Y181C mutant strain; experiment: Anti-HIV-1 mutant strain Y181C in MT-4 cells, MTT method; format: cell-based; details: Human immunodeficiency virus 1, MT4, read-out: EC50 Y181C
Experimental: as §2

[9] = test system: WT HIV-1 strain (IIIB); experiment: Anti-HIV-1 (IIIB, wild-type) activity in MT-4 cells, MTT method; format: cell-based; details: for SI (IIIB): selectivity index, CC50/EC50 (IIIB)
Experimental: as §1

[10] = test system: HIV-1 RES056 (K103N/Y181C) mutant strain; experiment: Anti-HIV-1 double mutant RES056 in MT-4 cells, MTT method; format: cell-based; details: Human immunodeficiency virus 1, MT4, read-out: EC50 RES056
Experimental: as §2

[11] = molecular target: T1, HIV-1 WT RT (Human immunodeficiency virus type 1 group M subtype B, UniProt P04585); experiment: HIV-1 RT inhibition assay (Roche kit, ELISA); format: biochemical
T1 construct: The RT is a heterodimer consisting of two subunits, p66 (560 residues) and p51 (440 residues); purchased Roche
Experimental: An HIV-1 reverse transcriptase (RT) assay kit produced by Roche was used for the RT inhibition assay. All the reagents for performing the RT reaction came from the kit, and the ELSIA procedures for RT inhibition assay were conducted following the description in the kit protocol [38]. […] Then used, a washing buffer was used to remove the unbound dNTPs, and an anti-DIG-POD working solution was added. […] The unbound anti-DIG-PODs were removed, and the peroxidesubstrate (ABST) solution was added to the MTPs. A colored reaction proceeds during the cleavage of the substrate catalyzed by POD. […] The percentage inhibitory activity of RT inhibitors was calculated by the formula given below: % Inhibition = [O.D. value with RT but without inhibitors − O.D. value with RT and inhibitors]/[O.D. value with RT and inhibitors − O.D. value without RT and inhibitors].

[12] = Human immunodeficiency virus 1, MT4, MT-4 cells, WT HIV-1 IIIB, MTT, read-out: EC50 IIIB
[13] = Human immunodeficiency virus 2, MT4, read-out: EC50 ROD
[14] = Human immunodeficiency virus 1, IIIB, MT4, read-out: EC50 IIIB, MT-4 cells, WT HIV-1 IIIB, MTT

Row | Compound | EC50 ([1]; Human immunodeficiency virus 2, MT4, MT-4 cells, HIV-2 ROD, MTT, read-out: EC50 ROD) [nM] | EC50 [2] [nM] | EC50 [3] [nM] | EC50 [4] [nM] | EC50 [5] [nM] | CC50 at 5 days [6] [nM] | EC50 [7] [nM] | EC50 [8] [nM] | EC50 [9, 12] [nM] | SI (IIIB) [9] | EC50 [10] [nM] | EC50 [1, 13] [nM] | Resistance Folds K103N [3] | melting point [°C] | IC50 [11] [nM] | EC50 [9, 14] [nM]
1 | Cc1cn([C@H]2C[C@H](N=[N+]=[N-])[C@@H](CO)O2)c(=O)[nH]c1=O [AZT, Zidovudine, reference compound] | 23.3 ± 2.1 | 19.4 ± 2.9 | 22.8 ± 1.1 | 14.8 ± 1.1 | 10 ± 1.2 | > 7480 | 30.1 ± 3 | 25.1 ± 3 | 27.3 ± 3.5 | >274.0 | 25.1 ± 1.8 |  |  |  |  | 
2 | O=C1Nc2ccc(Cl)cc2[C@@](C#CC2CC2)(C(F)(F)F)O1 [EFV, efavirenz, reference compound] |  | 240 ± 30.4 | 95.1 ± 9.1 | 201 ± 17.3 | 35 ± 4.7 | > 6340 | 4.4 ± 0.3 | 5.5 ± 0.5 | 2.4 ± 0.3 |  | 184 ± 22 |  |  |  |  | 
3 | Cc1ccnc2c1NC(=O)c1cccnc1N2C1CC1 [NVP, nevirapine, reference compound] |  | ≥ 13800 | 7500 ± 867 | > 15000 | 1860 ± 365 | > 15000 | 149 ± 12 | 10100 | 123 ± 7.3 |  | > 15000 |  |  |  |  | 
4 | Cc1cc(COc2ccccc2)cc(C)c1Oc1ccnc(Nc2ccc(C#N)cc2)n1 [TF1, 4-((4-(2,6-dimethyl-4-(phenoxymethyl)phenoxy)pyrimidin-2-yl)amino) benzonitrile] |  | 1520 ± 92.1 | 50.7 ± 9.6 | 1710 ± 581 | 221 ± 53.5 | > 296000 | 76.5 ± 9.4 | 515 ± 60.4 |  | >17,326.7 | 6850 ± 1170 | > 296000 | 3.00 | 179 to 182 | 62 | 17.1 ± 2.3
5 | Cc1cc(COc2ccc(C#N)cc2)cc(C)c1Oc1ccnc(Nc2ccc(C#N)cc2)n1 [TF2, 4-((4-(4-((4-cyanophenoxy)methyl)-2,6-dimethylphenoxy)pyrimidin-2-yl)amino) benzonitrile] |  | 1390 ± 119 | 28.1 ± 7.1 | 1140 ± 346 | 117 ± 49.5 | > 279000 | 44 ± 2.9 | 139 ± 34.9 |  | >36,610.9 | > 279000 | > 279000 | 3.68 | 202 to 205 | 55 ± 1 | 7.6 ± 0.6
6 | Cc1cc(COc2cccc(C#N)c2)cc(C)c1Oc1ccnc(Nc2ccc(C#N)cc2)n1 [TF3, 3-((4-((2-((4-cyanophenyl)amino)pyrimidin-4-yl)oxy)-3,5-dimethylbenzyl)oxy) benzonitrile] |  | 895 ± 90.2 | 48.4 ± 7.5 | 755 ± 156 | 116 ± 5.8 | 5520 ± 297 | 87.7 ± 8.5 | 245 ± 39.6 |  |  | 1540 ± 102 | > 5520 | 1.92 |  | 60 | 24.5 ± 4.1
7 | Cc1cc(COc2ccccc2C#N)cc(C)c1Oc1ccnc(Nc2ccc(C#N)cc2)n1 [TF4, 2-((4-((2-((4-cyanophenyl)amino)pyrimidin-4-yl)oxy)-3,5-dimethylbenzyl)oxy) benzonitrile] |  | > 5300 | 75.9 ± 13.9 | 1280 ± 303 | 315 ± 30.7 | 5290 ± 356 | 103 ± 6.8 | 482 ± 42.6 |  |  | > 5300 | > 5290 | 9.74 |  | 50 ± 2 | 7.8 ± 1
8 | COc1ccc(OCc2cc(C)c(Oc3ccnc(Nc4ccc(C#N)cc4)n3)c(C)c2)cc1 [TF5, 4-((4-(4-((4-methoxyphenoxy)methyl)-2,6-dimethylphenoxy)pyrimidin-2-yl)amino)benzonitrile] |  | 964 ± 98.1 | 44.5 ± 4.9 | 1410 ± 570 | 126 ± 12.6 | 254000 | 65.3 ± 10 | 268 ± 28.9 |  |  | > 254000 | > 254000 | 2.00 |  | 54 ± 4 | 21.7 ± 3.6
9 | COc1cccc(OCc2cc(C)c(Oc3ccnc(Nc4ccc(C#N)cc4)n3)c(C)c2)c1 [TF6, 4-((4-(4-((3-methoxyphenoxy)methyl)-2,6-dimethylphenoxy)pyrimidin-2-yl)amino)benzonitrile] |  | 1390 ± 83.6 | 91.2 ± 14.4 | 1100 ± 281 | 156 ± 16.8 | 6900 ± 249 | 149.7 ± 0.7 | 387 ± 87.4 |  | 195.6 | > 6900 | > 6900 | 2.60 | 149 to 152 | 52 ± 4 | 35.3 ± 4.1
10 | COc1ccccc1OCc1cc(C)c(Oc2ccnc(Nc3ccc(C#N)cc3)n2)c(C)c1 [TF7, 4-((4-(4-((2-methoxyphenoxy)methyl)-2,6-dimethylphenoxy)pyrimidin-2-yl)amino)benzonitrile] |  | > 8150 | 164 ± 5.5 | 1220 ± 179 | 452 ± 70.5 | 8150 ± 548 | 181 ± 10.7 | 791 ± 62.9 |  |  | > 8150 | > 8150 | 6.31 |  | 73 ± 3 | 25.5 ± 8.4
11 | Cc1cc(COc2ccc([N+](=O)[O-])cc2)cc(C)c1Oc1ccnc(Nc2ccc(C#N)cc2)n1 [TF15, 4-((4-(2,6-Dimethyl-4-((4-nitrophenoxy)methyl)phenoxy)pyrimidin-2-yl)amino) benzonitrile] |  | 1080 ± 99.4 | 46.3 ± 9.7 | 1660 ± 448 | 105 ± 15.2 | 215000 | 50 ± 4.4 | 196 ± 25.4 |  |  | 1800 ± 68.5 | > 215000 | 2.00 |  | 63 ± 1 | 23.1 ± 3.1
12 | Cc1cc(COc2ccc(N)cc2)cc(C)c1Oc1ccnc(Nc2ccc(C#N)cc2)n1 [TF17, 4-((4-(4-((4-Aminophenoxy)methyl)-2,6-dimethylphenoxy)pyrimidin-2-yl)amino) benzonitrile] |  | 905 ± 147 | 65.3 ± 7.6 | 747 ± 72.2 | 226 ± 28.9 | 5490 ± 328 | 152 ± 10.3 | 552 ± 62.5 |  |  |  | > 5490 | 1.97 |  | 57 ± 3 | 32.5 ± 1.7
